Reference: patent publication US12269811B2, “Synthesis of omecamtiv mecarbil” (Amgen Inc., priority 2017, dated 2025)
In brackets after ≈: the same amount, converted by molar mass. Values belong to the compound of their own block, whether it stands above or below them.

Tests used:
Format in all cases: physicochemical
[1] = Piperazine levels upon storage
[2] = Dynamic vapor sorption (DVS) isothermal plot of PMEC salt forms; conditions: FIG. 1; for DVS weight increase onset: relative humidity at onset of weight increase
Experimental: The DVS weight increase onset for each salt was measured as noted—35% relative humidity (RH) for the hemi-sulfate; 50% RH for the acetate; and 65% RH for the phosphate hydrate. The phosphate hydrate is termed phosphate or hemi-phosphate and the hemi-sulfate is termed sulfate or hemi-sulfate in the figure.

[3] = Solubility in isopropanol

SMILES: COC(=O)N1CCNCC1 [PMEC freebase, methyl piperazine-1-carboxylate]
piperazine levels upon storage ([1]; storage at 25° C.): up to 18 LC area %

SMILES: COC(=O)N1CCNCC1 [PMEC phosphate hydrate, methyl piperazine-1-carboxylate]
hygroscopicity ([2]; compared with the sulfate and acetate salts): less hygroscopic than the corresponding sulfate and acetate salt
DVS weight increase onset [2]: 65 % RH
piperazine levels upon storage ([1]; upon storage, level <0.4 GC area %): do not increase upon storage

SMILES: COC(=O)N1CCN(Cc2cccc(NC(=O)Nc3ccc(C)nc3)c2F)CC1 [omecamtiv mecarbil]
solubility in isopropanol ([3]; 20° C.): about 10 mg/mL
solubility ([3]; 20 °C, organic solvent or mixture): ~12 mg/mL (≈ 29.9 mM)

Second part, the compound after the results:

DVS weight increase onset [2]: 50 % RH
SMILES: COC(=O)N1CCNCC1 [acetate, methyl piperazine-1-carboxylate]

DVS weight increase onset [2]: 35 % RH
SMILES: COC(=O)N1CCNCC1 [hemi-sulfate, methyl piperazine-1-carboxylate]
